Test results taken from patent US6998395B2, “Administration of estradiol metabolites for the treatment or prevention of obesity, metabolic syndrome, diabetes, and vascular and renal disorders” (University of Pittsburg,, priority 2001, dated 2006).

What was measured:
Type in all cases: in vivo, rat
male obese ZSF1 rats = assay: Heart performance, arterial blood pressure and renal hemodynamics in anesthetized ZSF1 rats after 26 weeks of treatment; details: for Glomerular Filtration Rate / Renal Blood Flow / Renal Vascular Resistance: 26 weeks (approximately 6 months) of treatment; for Glomerular Filtration Rate: 14C-inulin clearance
Description: After 26 weeks of treatment, animals were anesthetized and instrumented for assessment of heart performance, renal hemodynamics and mesenteric vascular reactivity. A PE-50 catheter was advanced via the carotid artery into the left ventricle and connected to a heart-performance analyzer (Micro-Med, Inc., Louisville, Ky.) for continuous measurement of ten time/pressure variables. A PE-50 catheter was inserted into the femoral artery and connected to a blood pressure analyzer (Micro-Med, Inc.) for measurement of arterial blood pressure. A PE-10 catheter was inserted into the left ureter for urine collection, and a flow probe (Transonic Systems, Inc., Ithaca, N.Y.) was placed on the left renal artery for determination of renal blood flow. An infusion of ^14C-inulin (0.035 uCi/20 ul saline/min) was initiated, and after 60 minutes, two 30-minute clearance periods were conducted. A mid-point blood sample (300 ul) for measurement of radioactivity was collected. Plasma and urine ^14C-inulin radioactivity were measured, and renal clearance of ^14C-inulin was calculated. A flow probe was placed on the mesenteric artery for determination of mesenteric blood flow, and a 32-gauge needle was inserted into the mesenteric artery and attached to a Y-connector for dual intramesenteric artery infusions (25 ul/min each). Angiotensin II (30 ng/min) plus methoxamine (3 ug/min) was delivered via one intramesenteric artery infusion line into the mesenteric vascular bed to the mesenteric vascular bed. Next, vascular responses to increasing doses of acetylcholine (0.3, 1.0 and 3.0 ug/min, 5 minutes per dose) and sodium nitroprusside (0.5, 1.5 and 5.0 ug/min, 5 minutes per dose) were elicited by infusing these agents via the other intramesenteric artery infusion line into the mesenteric vascular bed. Vascular resistances were calculated as arterial blood pressure divided by blood flow.
All values refer to means±SEM for 9 to 10 animals in each group. Statistical significance was calculated using either an unpaired Student's t-test or a 2-factor analysis of variance (repeated measures) followed by a Fisher's Least Significance Difference test if appropriate. The criterion of significance was p<0.05.

male ZSF1 rats [1] = assay: Treatment of male ZSF1 rats for 24 weeks with 2-hydroxyestradiol or 2-methoxyestradiol
Description: Male ZSF1 rats were treated continuously for 24 weeks with polyethylene glycol 400 (PEG 400) (Sigma, St. Louis, Mo.) or one of three doses of 2-hydroxyestradiol or 2-methoxyestradiol (Steraloids, Inc. Newport, R.I.) dissolved in PEG 400. The three doses were 1 ug/kg/hr, 3 ug/kg/hr or 10 ug/kg/hr. Female ZSF1 rats were treated continuously for 24 weeks with either PEG 400 or 10 ug/kg/hr of 2-hydroxyestradiol. Female ZSF1 rats were ovarectomized at 11 weeks of age. For all animals, both male and female, treatments with estradiol metabolites were begun at approximately 13 weeks of age. One group of male ZSF1 rats received only PEG 400 but were pair fed to receive the same daily food intake as the male ZSF1 rats treated with 10 ug/kg/hr 2-hydroxyestradiol. Treatment was administered via subcutaneous implanted pumps (Alzet Osmotic Pump, Model 2ML4, Alza Corporation, Palo Alto, Calif.). The study was designed to evaluate treatment effects and dose responses on body weight, food intake, water intake, urine output, urinary protein excretion, cholesterol levels, plasma glucose levels and glucose tolerance.
Stock solutions of both 2-hydroxyestradiol and 2-methoxyestradiol were made by dissolving the required amount of estradiol metabolite in PEG 400. This solution was diluted in PEG 400 to deliver the three required doses based on the mean weight of each treatment group and the stated volume delivery rate for each lot of osmotic pumps in the study. This stock solution was prepared fresh prior to each osmotic pump implantation in each group. The control solution of PEG 400 was created in the same manner.
All treatments were administered via a subcutaneously implanted osmotic pump (Alzet Osmotic Pump, Model 2ML4, Alza Corporation, Palo Alto, Calif.). Each lot of osmotic pumps were delivered with the stated rate of delivery and formulation concentrations were adjusted to ensure delivery of 1,3, or 10 ug/kg/hr based on the stated rate of delivery of each lot. Doses were adjusted for the mean weight of the animals in the treatment group obtained 24 hours prior to implantation of the osmotic minipump.
Animals were anesthetized prior to implantation of an osmotic minipump with halothane and oxygen (2.5 liter/min) delivered by a Fluotec 3 anesthetic device (Ohmeda, Steeton, UK). After lightly anesthetizing each animal, implantation was accomplished by shaving the back and creating a half-inch incision in which to insert the osmotic minipump. The incision was then closed with wound clips that were removed in seven days. Osmotic minipumps were replaced at 33-day intervals and each time a particular animal received an osmotic minipump, the insertion point was changed.
(§1) Metabolic cages (Nalgene, Rochester, N.Y.) were used in this study. Animals were placed in metabolic cages for 48 hours. The first 24-hour period was considered an acclimation period, while food and fluid intake and urine volume were measured during the second 24-hour period. Additionally, a tail vein sample was obtained to measure blood glucose, sodium, potassium, albumin and creatinine. The blood was further analyzed to assess creatinine clearance, fractional sodium excretion, fractional potassium excretion and fractional albumin excretion. In addition, the following criteria were also assessed while the animals were in the metabolic cages: body weight, feed intake, water intake, urine output, urinary protein, urinary albumin, urinary glucose, urinary sodium and urinary potassium.
Body weights were assessed 24 hours before pump implantation and those weights were used to calculate the dosage of drug or vehicle to be given to each animal based on the mean body weight of each group. Animals were weighed approximately once every two months prior to being placed in a metabolic cage.
(§2) Food intake was measured by filling the food containers with standard powder laboratory food up to a total weight of 250 grams. […]

female ZSF1 rats = assay: Treatment of ovarectomized female ZSF1 rats for 24 weeks with 2-hydroxyestradiol; details: 10 ug/kg/hr
Description: Male ZSF1 rats were treated continuously for 24 weeks with polyethylene glycol 400 (PEG 400) (Sigma, St. Louis, Mo.) or one of three doses of 2-hydroxyestradiol or 2-methoxyestradiol (Steraloids, Inc. Newport, R.I.) dissolved in PEG 400. The three doses were 1 ug/kg/hr, 3 ug/kg/hr or 10 ug/kg/hr. Female ZSF1 rats were treated continuously for 24 weeks with either PEG 400 or 10 ug/kg/hr of 2-hydroxyestradiol. Female ZSF1 rats were ovarectomized at 11 weeks of age. For all animals, both male and female, treatments with estradiol metabolites were begun at approximately 13 weeks of age. […]
as §1, with “Animals were placed in metabolic cages for 48 hours.” left out, “Additionally, a tail vein sample was obtained to measure blood glucose, sodium, potassium, albumin and creatinine.” left out, “potassium. […]” for “potassium.”
as §2

male ZSF1 rats [2] = assay: Treatment of male ZSF1 rats for 24 weeks with 2-hydroxyestradiol or 2-methoxyestradiol; details: 10 ug/kg/hr, 28 weeks, versus control animals
[3] = anesthetized, listed as 2-Hydroxyestradiol
[4] = Table 2, after approximately 6 months of treatment
[5] = male, 10 ug/kg/hr, 24 weeks, versus control animals
[6] = male, 1, 3 or 10 ug/kg/hr s.c. osmotic pump, 24 weeks, versus control

C[C@]12CC[C@@H]3c4cc(O)c(O)cc4CC[C@H]3[C@@H]1CC[C@@H]2O [2-hydroxyestradiol, estra-1,3,5 (10)-triene-2,3,1 7-triol (17β)]
Mean arterial blood pressure (male obese ZSF1 rats; 10 ug/kg/hour s.c., 26 weeks of treatment, anesthetized): 122±5 mm Hg
Effects on heart performance in situ (male obese ZSF1 rats; 10 ug/kg/hour s.c., chronic treatment (26 weeks), versus control): no effects
Glomerular Filtration Rate (male obese ZSF1 rats): did not affect
Glomerular Filtration Rate (male obese ZSF1 rats; listed as 2-Hydroxyestradiol): 0.76 ± 0.09 ml/min/gram kidney
Renal Blood Flow (male obese ZSF1 rats; anesthetized): did not affect
Renal Vascular Resistance (male obese ZSF1 rats; anesthetized): did not affect
Renal Blood Flow (male obese ZSF1 rats; [3]): 3.3 ± 0.6 ml/min/gram kidney
Renal Vascular Resistance (male obese ZSF1 rats; [3]): 42 ± 7 mm Hg/ml/min/gram kidney
+dP/dtmax (male obese ZSF1 rats; [4]): 11,805 ± 943 mm Hg/sec
+dP/dtmax/Ventricular Peak Systolic Pressure (male obese ZSF1 rats; [4]): 69.9 ± 2.5 s⁻¹
Duration of Contraction (male obese ZSF1 rats; [4]): 38.8 ± 3.5 ms
Duration of Relaxation (male obese ZSF1 rats; [4]): 96.3 ± 6.3 ms
Half-Time of Ventricular Relaxation (male obese ZSF1 rats; [4]): 49.1 ± 3.6 ms
Heart Rate (male obese ZSF1 rats; [4]): 352 ± 9 beats/min
Heart Rate × Ventricular Peak Systolic Pressure (male obese ZSF1 rats; [4]): 60,949 ± 4,237 [beats/min] × mm Hg
Mean Blood Pressure (male obese ZSF1 rats; [4]): 122 ± 5 mm Hg
Time Constant of Ventricular Relaxation (male obese ZSF1 rats; [4]): 16.7 ± 1.9 ms
Ventricular End Diastolic Pressure (male obese ZSF1 rats; [4]): 4.2 ± 1.0 mm Hg
Ventricular Minimum Diastolic Pressure (male obese ZSF1 rats; [4]): −1.4 ± 1.1 mm Hg
Ventricular Peak Systolic Pressure (male obese ZSF1 rats; [4]): 172 ± 9 mm Hg
−dP/dtmax (male obese ZSF1 rats; [4]): 6853 ± 382 mm Hg/sec
Leptin levels (FIG. 11) (male ZSF1 rats [1]; male, 10 ug/kg/hr, 20 weeks, versus control animals): clearly reduced
24-hour urine output (FIG. 13) (male ZSF1 rats [1]; [5]): lower
24-hour water intake (FIG. 12) (male ZSF1 rats [1]; [5]): lower
Blood urea nitrogen (FIG. 10) (male ZSF1 rats [1]; male, 10 ug/kg/hr, 24 weeks, versus control groups): lower
Plasma level of glucose after administration of 2 g/4 ml/kg glucose (oral glucose tolerance test, FIGS. 8 and 9) (male ZSF1 rats [1]; male, 10 ug/kg/hr, treated for 14 to 15 weeks, versus control groups): lower
Body weight gain (FIGS. 4 and 5) (male ZSF1 rats [1]; [6]): less body weight gain
Food intake (male ZSF1 rats [1]; [6]): lower food intake
Urinary protein excretion (FIG. 7) (male ZSF1 rats [1]; male, 1, 3 or 10 ug/kg/hr, after 24 weeks of treatment, versus control animals): lower
Leptin levels (FIG. 11) (female ZSF1 rats; 20 weeks, versus control animals): reduced
Blood urea nitrogen (FIG. 10) (female ZSF1 rats; 24 weeks, versus control groups): lower
Glycated hemoglobin (HbA1c) (FIG. 14) (male ZSF1 rats [2]): lower
